Converted amounts (≈) assume the structure as drawn.
Columns and labels:
Aspergillus fumigatus = assay: Antifungal activity against Aspergillus fumigatus (AF-27); format: functional
Sporothrix schenckii = assay: In vitro for antifungal activity against Sporothrix schenck ii (SS-1); format: functional
Candida albicans = assay: Antifungal activity against Candida albicans (SKF); format: functional
Cryptococcus neoformans = assay: Antifungal activity against Cryptococcus neoformans (CN-17); format: functional
Trichophyton benhamiae = assay: In vitro for antifungal activity against Trichophyton mentagrophytes (A-280); format: functional, Arthroderma benhamiae
Leishmania donovani = assay: An vitro anti-leishmanial activity against Leishmania donovani promastigotes (25 uM); format: functional

SMILES	MIC (Aspergillus fumigatus)	MIC (Sporothrix schenckii)	MIC (Candida albicans)	MIC (Cryptococcus neoformans)	MIC (Trichophyton benhamiae)	Growth inhibition (Leishmania donovani)
CSc1cc(-c2ccc(F)cc2)c(C(=O)O)s1	> 100 µg/mL	> 100 µg/mL	> 100 µg/mL	> 100 µg/mL	50 µg/mL (≈ 186 µM)	40%
CCOC(=O)c1sc2cc(-c3ccc(OC)cc3)oc(=O)c2c1N	> 100 µg/mL	> 100 µg/mL	> 100 µg/mL	> 100 µg/mL	> 100 µg/mL	10%
CCOC(=O)c1sc(SC)cc1-c1ccc(Br)cc1	> 100 µg/mL	> 100 µg/mL	> 100 µg/mL	> 100 µg/mL	> 100 µg/mL	20%
CSc1cc(-c2ccc(C)cc2)c(C(=O)O)s1	> 100 µg/mL	> 100 µg/mL	> 100 µg/mL	> 100 µg/mL	> 100 µg/mL	10%
CCOC(=O)c1sc(SC)cc1-c1ccc(C)cc1	> 100 µg/mL	> 100 µg/mL	> 100 µg/mL	> 100 µg/mL	> 100 µg/mL	100%
N=C(N)c1ccc(OCCCCCOc2ccc(C(=N)N)cc2)cc1 [PENTAMIDINE]						100%
CCOC(=O)c1sc2cc(-c3cccc([N+](=O)[O-])c3)oc(=O)c2c1N	> 100 µg/mL	> 100 µg/mL	> 100 µg/mL	> 100 µg/mL	> 100 µg/mL	28%
CCOC(=O)c1sc(SC)cc1-c1ccc(Cl)cc1	> 100 µg/mL	> 100 µg/mL	> 100 µg/mL	> 100 µg/mL	> 100 µg/mL	55%
CCOC(=O)c1sc2cc(-c3cc(F)c(Cl)cc3Cl)oc(=O)c2c1N	> 100 µg/mL	> 100 µg/mL	> 100 µg/mL	> 100 µg/mL	> 100 µg/mL	70%
CCOC(=O)c1sc(SC)c(C#N)c1O	> 100 µg/mL	> 100 µg/mL	> 100 µg/mL	> 100 µg/mL	50 µg/mL (≈ 206 µM)	60%
CSc1cc(-c2ccc(Cl)cc2)c(C(=O)O)s1	> 100 µg/mL	> 100 µg/mL	> 100 µg/mL	> 100 µg/mL	> 100 µg/mL	30%
CCOC(=O)c1sc(SC)c(C(=O)OC)c1O	25 µg/mL (≈ 90.5 µM)	12.5 µg/mL (≈ 45.2 µM)	50 µg/mL (≈ 181 µM)	12.5 µg/mL (≈ 45.2 µM)	6.25 µg/mL (≈ 22.6 µM)	95%
CCOC(=O)c1sc(SC)c(C#N)c1N	> 100 µg/mL	> 100 µg/mL	> 100 µg/mL	> 100 µg/mL	> 100 µg/mL	25%
CCOC(=O)c1sc(SC)c(C(=O)OCC)c1O	> 100 µg/mL	> 100 µg/mL	> 100 µg/mL	> 100 µg/mL	> 100 µg/mL	63%
CCOC(=O)c1sc(SC)cc1-c1cccnc1	50 µg/mL (≈ 179 µM)	25 µg/mL (≈ 89.5 µM)	25 µg/mL (≈ 89.5 µM)	50 µg/mL (≈ 179 µM)	25 µg/mL (≈ 89.5 µM)	25%
CCOC(=O)c1sc(SC)cc1-c1ccccc1	> 100 µg/mL	> 100 µg/mL	> 100 µg/mL	> 100 µg/mL	> 100 µg/mL	30%
CSc1cc(-c2cccnc2)c(C(=O)O)s1	> 100 µg/mL	> 100 µg/mL	> 100 µg/mL	> 100 µg/mL	> 100 µg/mL	25%
CSc1cc(-c2ccc(Br)cc2)c(C(=O)O)s1	> 100 µg/mL	> 100 µg/mL	> 100 µg/mL	> 100 µg/mL	50 µg/mL (≈ 152 µM)	100%
CCOC(=O)c1sc2cc(-c3ccc(Cl)cc3)oc(=O)c2c1N	> 100 µg/mL	> 100 µg/mL	> 100 µg/mL	> 100 µg/mL	> 100 µg/mL	24%
CCOC(=O)c1sc2cc(-c3ccc([N+](=O)[O-])cc3)oc(=O)c2c1N	> 100 µg/mL	> 100 µg/mL	> 100 µg/mL	> 100 µg/mL	> 100 µg/mL	20%
CC(=O)N1CCN(c2ccc(OC[C@H]3CO[C@](Cn4ccnc4)(c4ccc(Cl)cc4Cl)O3)cc2)CC1 [KETOCONAZOLE]	0.7 µg/mL (≈ 1.32 µM)	0.1 µg/mL (≈ 0.188 µM)	0.1 µg/mL (≈ 0.188 µM)	0.3 µg/mL (≈ 0.565 µM)	25 µg/mL (≈ 47 µM)	
CCOC(=O)c1sc(SC)cc1-c1ccc(F)cc1	> 100 µg/mL	> 100 µg/mL	> 100 µg/mL	> 100 µg/mL	> 100 µg/mL	95%
CCOC(=O)c1sc2cc(-c3ccc(F)cc3)oc(=O)c2c1N	> 100 µg/mL	> 100 µg/mL	> 100 µg/mL	> 100 µg/mL	> 100 µg/mL	30%
CCOC(=O)c1sc2cc(-c3ccc(Br)cc3)oc(=O)c2c1N	> 100 µg/mL	> 100 µg/mL	> 100 µg/mL	> 100 µg/mL	> 100 µg/mL	8%
CCOC(=O)c1sc2cc(-c3cccnc3)oc(=O)c2c1N	> 100 µg/mL	> 100 µg/mL	> 100 µg/mL	> 100 µg/mL	> 100 µg/mL	15%
